Test results published in EPA's ToxValDB 9.5 (doi:10.2903/j.efsa.2010.1653).

Tests used:
Apis mellifera = details: acute; duration: 48 hours; oral; unspecified; mortality
Bibionidae = details: chronic/long-term; duration: 28 days; development
Canidae = details: chronic; duration: 1 years; oral; Dog Other; body weight
Coturnix japonica = details: acute; oral; mortality
Daphnia magna = details: chronic/long-term; duration: 21 days; reproduction
Oryctolagus sp. = details: developmental; development
Tagia sp. = details: acute; duration: 14 days; mortality
Typhlodromus pyri [1] = details: chronic/long-term; duration: 14 days; reproduction
Typhlodromus pyri [2] = experiment: LR50; higher = less toxic; details: acute; duration: 7 days; mortality
[3] = reproduction developmental, reproduction

Structure (SMILES): Cc1cc(=O)[nH]o1 [Hymexazol]
- LD50 (Apis mellifera): > 100 µg/piece
- NOEC (Bibionidae): 1.6 mg/L
- NOAEL (Canidae): 17 mg/kg-day
- LC50 (Colinus virginianus; acute, oral, diet, mortality): > 1470 mg/kg-day
- NOEC (Colinus virginianus; [3]): 86.5 mg/kg-day
- LD50 (Coturnix japonica): > 1080 mg/kg
- NOEC (Daphnia magna): 0.8 mg/L
- LC50 (Oncorhynchus mykiss; acute, duration: 96 hours, mortality): > 100 mg/L
- NOEC (Oncorhynchus mykiss; chronic/long-term, duration: 28 days, body weight): > 100 mg/L
- NOAEL (Oryctolagus sp.): 50 mg/kg-day
- LD50 (Rattus norvegicus; acute, oral, mortality): 1390 mg/kg
- NOEL (Rattus norvegicus; [3]): 37 mg/kg-day
- LC50 (Tagia sp.): 282 mg/kg
- NOEC (Typhlodromus pyri [1]): 400 g/ha
- LR50 (Typhlodromus pyri [2]): 1110 g/ha
